Where “and” joins values, the source holds several entries; their conditions need not be identical. Equal values may be shown once. Entries after “also recorded” stand apart in the source; their conditions may differ. Read-outs that look alike come from different tables or passages of the source.
Tests used:
recombinant human topo I = molecular target: T1, recombinant human topo I (Homo sapiens, UniProt P11387); assay: Human topoisomerase I (hTopoI) relaxation assay; format: biochemical; conditions: 50 μM
T1 construct: purchased TopoGEN, Port Orange, FL, USA
T1 sequence (P11387 1-765): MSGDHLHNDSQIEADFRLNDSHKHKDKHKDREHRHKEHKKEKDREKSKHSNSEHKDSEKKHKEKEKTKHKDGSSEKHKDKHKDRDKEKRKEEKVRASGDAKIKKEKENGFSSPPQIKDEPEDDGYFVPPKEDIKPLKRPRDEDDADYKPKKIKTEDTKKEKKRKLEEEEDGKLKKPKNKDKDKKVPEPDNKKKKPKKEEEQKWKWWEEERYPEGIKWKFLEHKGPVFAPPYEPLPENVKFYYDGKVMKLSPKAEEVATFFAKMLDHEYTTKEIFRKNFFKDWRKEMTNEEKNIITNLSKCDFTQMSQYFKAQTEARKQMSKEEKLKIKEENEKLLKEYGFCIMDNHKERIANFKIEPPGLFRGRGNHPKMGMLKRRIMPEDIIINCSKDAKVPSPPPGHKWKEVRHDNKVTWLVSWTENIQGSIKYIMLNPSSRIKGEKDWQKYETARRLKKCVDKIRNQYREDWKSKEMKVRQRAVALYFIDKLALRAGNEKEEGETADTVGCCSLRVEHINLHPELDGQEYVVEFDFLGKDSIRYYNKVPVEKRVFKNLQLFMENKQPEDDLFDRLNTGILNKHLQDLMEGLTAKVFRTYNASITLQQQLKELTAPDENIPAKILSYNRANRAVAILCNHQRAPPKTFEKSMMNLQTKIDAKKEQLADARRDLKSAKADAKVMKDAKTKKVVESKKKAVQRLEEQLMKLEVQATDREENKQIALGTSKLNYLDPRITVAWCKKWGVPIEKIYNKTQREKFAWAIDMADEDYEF
Protocol: Human topoisomerase I relaxation assays were performed incubating the supercoiled pHOT1 (used as substrate) with the recombinant human topo I (TopoGEN, Port Orange, FL, USA) and all the tested compounds, according to the guidelines of the manufacturer (TopoGEN, Port Orange, FL, USA), with some modifications.

[1] = tested on: human embryonic kidney 293 (HEK293) cells; assay: MTT cell viability assay in HEK293 cells; format: cell-based; conditions: for IC50: Homo sapiens, HEK293, 48 h treatment, MTT assay, read-out: IC50 (µM) ± S.D. HEK293; for Anti-proliferative / inhibitory effects in non-tumoral HEK293 cells: result in words
Protocol: (§1) SkBr3 cells were maintained in RPMI-1640 (Life Technologies, Milan, Italy) without phenol red, supplemented with 5% fetal bovine serum (FBS) and 100 μg/mL penicillin/streptomycin (Life Technologies, Milan, Italy). MCF-7 and HEK-293 cells were maintained in DMEM (Dulbecco’s modified Eagle’s medium) (Life Technologies, Milan, Italy) with phenol red, with a supplement of 5% FBS and 100 μg/mL of penicillin/streptomycin.
(§2) The effects of each compound on cell viability were determined by the MTT [3-(4,5-dimethylthiazol-2-yl)-2,5-diphenyltetrazolium bromide] assay, as previously reported. Cells were seeded in quadruplicate in 96-well plates in regular growth medium and grown until 70–80% confluence. […] Relative cell viability was determined by MTT assay according to the manufacturer’s protocol (Sigma-Aldrich, Milan, Italy). Mean absorbance for each drug dose was expressed as a percentage of the control untreated well absorbance and plotted versus drug concentration. IC50 values represent the drugs concentration able to reduce the cells viability of 50% respect to the untreated control cells (vehicle).

human topoisomerase II = molecular target: T2, human topoisomerase II (Homo sapiens, UniProt P11388); assay: Human topoisomerase II (hTopoII) decatenation assay; format: biochemical; conditions: 50 μM
T2 construct: purchased TopoGEN, Port Orange, FL, USA
Protocol: Human topoisomerase II decatenation assays were carried out incubating the human topoisomerase II (TopoGEN, Port Orange, FL, USA) with kinetoplast DNA (used as substrate) and all the tested compounds, according to the guidelines of the manufacturer (TopoGEN, Port Orange, FL, USA), with some modifications.

MCF-7 cells = assay: TUNEL assay in MCF-7 cells; format: cell-based, human
Protocol: (§3) Cell apoptosis was determined by TdT-mediated dUTP Nick-End Labeling (TUNEL) assay, conducted using DeadEnd Fluorometric TUNEL System (Promega, Milan, Italy) and performed according to the manufacturer’s instructions. […] After fixation, cells were permeabilized in 0.2% Triton X-100 solution in PBS for 5 min. After washing twice with washing buffer for 5 min, the cells were covered with equilibration buffer at room temperature for 5–10 min. The labeling reaction was performed using terminal deoxynucleotidyl transferase end-labeling TdT and fluorescein-dUTP cocktail for each sample and incubated for 1 h at 37 ◦C where TdT catalyzes the binding of fluorescein-dUTP to free 3′OH ends in the nicked DNA. After rinsing, cells were washed with 2 × SSC solution buffer and subsequently incubated with 4′,6-Diamidino-2-Phenylindole (DAPI, Sigma-Aldrich, Milan, Italy) to stain nuclei and analyzed using the Cytation 3 Cell Imaging Multimode Reader (BioTek, Winooski, VT, USA). Statistical analysis was done using ANOVA followed by Newman–Keuls’ testing to determine differences in means. p < 0.05 was considered as statistically significant.

[2] = In vitro bioavailability, dialysis tubing procedure with pepsin and pancreatin digestion; format: in vitro ADME; conditions: for In vitro bioavailability (%) 4 h pH 7.0: after pancreatin digestion (4 h); for In vitro bioavailability (%) 2 h pH 1.0: after pepsin digestion (2 h); for In vitro bioavailability (%) Total 6 h: total after pepsin (2 h) and pancreatin (4 h) digestions
Protocol: In vitro bioavailability studies of compounds 3, 4 (the salt of compound 3) and resveratrol were performed in solutions simulating gastric and intestinal environment through a modified version of the traditional technique of dialysis membranes. The method of the dialysis membrane is divided in two enzymatic digestion phases: A first phase in which the action of pepsin occurs and a second phase in which participates the pancreatin (see experimental section). Bioavailability is defined as the percentage of analyte recovered in the bio-accessible fraction after in vitro digestion, in relation to the original undigested sample, as calculated according to the following equation [32]:Bioavailability (%) = (Bioaccessible content/Total content) × 100
In vitro bioavailability studies were performed according to the dialysis tubing procedure as previously reported in literature.
For this purpose, 100 µL of each tested compound (10 mM in DMSO) were employed and the concentration of each sample was determined using a UV/VIS spectrometer V-530 (Jasco, Cremella (LC), Italy).
The percentages were calculated according to the equations obtained from the prepared calibration curves at pH 1.0 and 7.0, respectively, for the two tested molecules.
The experiments were carried out in triplicate.

SkBr3 cells = assay: TUNEL assay in SkBr3 cells; format: cell-based, human
Protocol: as §3

[3] = tested on: SkBr3 breast cancer cells; assay: MTT cell viability assay in SkBr3 cells; format: cell-based; conditions: Homo sapiens
Protocol: as §1, §2

[4] = tested on: MCF-7 breast cancer cells; assay: MTT cell viability assay in MCF-7 cells; format: cell-based; conditions: Homo sapiens
Protocol: as §1, §2

[5] = SK-BR-3, 48 h treatment, read-out: IC50 (µM) ± S.D. SkBr3
[6] = MCF7, 48 h treatment, read-out: IC50 (µM) ± S.D. MCF-7
[7] = 50 µM for 48 h (data not shown)

T2 sequence (P11388 whole entry): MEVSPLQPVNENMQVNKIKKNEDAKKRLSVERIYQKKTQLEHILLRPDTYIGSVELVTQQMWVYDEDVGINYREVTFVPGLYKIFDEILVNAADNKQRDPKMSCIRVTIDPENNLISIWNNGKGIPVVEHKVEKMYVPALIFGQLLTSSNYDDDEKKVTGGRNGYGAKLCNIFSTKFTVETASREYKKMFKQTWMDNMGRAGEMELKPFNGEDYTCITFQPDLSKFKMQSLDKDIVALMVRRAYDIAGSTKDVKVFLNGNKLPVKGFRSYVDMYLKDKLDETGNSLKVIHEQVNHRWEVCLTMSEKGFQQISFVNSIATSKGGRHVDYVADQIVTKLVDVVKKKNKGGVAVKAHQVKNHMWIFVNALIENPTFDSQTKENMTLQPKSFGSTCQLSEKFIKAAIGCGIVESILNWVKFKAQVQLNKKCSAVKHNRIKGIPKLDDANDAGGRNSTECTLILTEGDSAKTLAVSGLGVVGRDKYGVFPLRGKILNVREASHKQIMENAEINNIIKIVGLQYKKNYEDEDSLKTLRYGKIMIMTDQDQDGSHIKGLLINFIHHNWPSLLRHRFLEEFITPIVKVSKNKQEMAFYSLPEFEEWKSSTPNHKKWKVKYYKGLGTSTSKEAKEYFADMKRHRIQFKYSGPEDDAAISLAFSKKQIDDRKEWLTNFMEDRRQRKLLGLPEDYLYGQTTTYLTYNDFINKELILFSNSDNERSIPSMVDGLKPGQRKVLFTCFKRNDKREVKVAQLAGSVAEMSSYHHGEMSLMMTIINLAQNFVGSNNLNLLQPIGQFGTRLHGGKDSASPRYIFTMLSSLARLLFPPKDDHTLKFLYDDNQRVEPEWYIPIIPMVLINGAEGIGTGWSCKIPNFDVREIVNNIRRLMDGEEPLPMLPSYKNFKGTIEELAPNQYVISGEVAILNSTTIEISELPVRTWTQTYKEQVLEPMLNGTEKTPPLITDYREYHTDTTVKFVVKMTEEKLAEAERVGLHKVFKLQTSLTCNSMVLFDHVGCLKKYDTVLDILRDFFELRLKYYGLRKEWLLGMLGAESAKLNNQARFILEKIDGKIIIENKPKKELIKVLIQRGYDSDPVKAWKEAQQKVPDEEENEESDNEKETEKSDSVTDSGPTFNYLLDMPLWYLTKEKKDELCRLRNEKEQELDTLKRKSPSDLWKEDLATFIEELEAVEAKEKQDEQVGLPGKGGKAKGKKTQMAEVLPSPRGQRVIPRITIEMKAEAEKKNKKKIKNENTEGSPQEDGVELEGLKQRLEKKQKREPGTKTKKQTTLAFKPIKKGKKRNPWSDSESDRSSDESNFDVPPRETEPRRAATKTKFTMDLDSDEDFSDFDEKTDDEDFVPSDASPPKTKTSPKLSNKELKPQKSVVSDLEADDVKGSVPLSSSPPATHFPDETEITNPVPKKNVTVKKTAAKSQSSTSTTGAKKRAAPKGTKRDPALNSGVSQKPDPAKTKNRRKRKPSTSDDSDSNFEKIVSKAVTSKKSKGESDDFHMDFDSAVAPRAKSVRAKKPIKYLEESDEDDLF

Row | Inhibition of hTopoI (relaxation of supercoiled DNA) (recombinant human topo I) | Inhibition of hTopoII activity (kDNA decatenation) (human topoisomerase II) | In vitro bioavailability (%) 4 h pH 7.0 [2] | In vitro bioavailability (%) 2 h pH 1.0 [2] | In vitro bioavailability (%) Total 6 h [2] | IC50 [3, 5] [µM] | IC50 [4, 6] [µM] | Structure (SMILES) | IC50 [1] [µM] | Anti-proliferative / inhibitory effects in non-tumoral HEK293 cells [1] | Percentage of TUNEL-positive cells, MCF-7 (MCF-7 cells; 10 μM for 24 h, versus vehicle) | Percentage of TUNEL-positive cells, SkBr3 (SkBr3 cells; 10 μM for 24 h, versus vehicle) | TUNEL staining, MCF-7 (MCF-7 cells; [7]) | TUNEL staining, SkBr3 (SkBr3 cells; [7]) | IC50 ([3]; SK-BR-3, treatment time not given, read-out: IC50, cytotoxic activity, SkBr3) [µM] | IC50 ([4]; MCF7, treatment time not given, read-out: IC50, cytotoxic activity, MCF-7) [µM]
1 | no inhibition of hTopoI was observed | able to inhibit | 31% and 31 ± 1.1% | 16% and 16 ± 0.7% | 47% and 47 ± 1.6% | 15 | 12 | O=C(O)c1ccc(/N=C/c2cc(O)ccc2O)cc1 [Compound 3, (E)-4-(2,5-dihydroxybenzylidene)-imino-benzoic acid] | > 90 | did not elicit inhibitory effects; also recorded: did not induce inhibitory effects | increased the percentage | increased the percentage | – | – | – | –
2 | no inhibition of hTopoI was observed | able to inhibit | 28% and 28 ± 0.9% | 17% and 17 ± 0.8% | 45% and 45 ± 1.3% | – | – | O=C(O)c1ccc(/N=C/c2cc(O)ccc2O)cc1 [Compound 4, (E)-4-(2,5-dihydroxybenzylidene)-imino-sodium benzoate] | – | did not elicit anti-proliferative effects; also recorded: did not induce inhibitory effects | – | – | positive for TUNEL staining | positive for TUNEL staining | 62 | 50
3 | – | – | – | – | – | > 90 | > 90 | O=C(O)c1ccc(/N=C/c2cc(O)cc(O)c2)cc1 [Compound 6, (E)-4-(3,5-dihydroxybenzylidene)-imino-benzoic acid] | > 90 | – | – | – | – | – | – | –
4 | no inhibition of hTopoI was observed | inhibited the hTopoII | 23 ± 0.8% | 12 ± 0.6% | 35% and 35 ± 1.1% | > 90 | > 90 | Oc1ccc(C=Cc2cc(O)cc(O)c2)cc1 [resveratrol, 3, 4′,5-trihydroxy-stilbene] | > 90 | – | – | – | – | – | – | –
